# Experiments:
# Hepatocyte [1] = experiment: Antihepatotoxic activity against galactosamine-induced cytotoxicity in rat hepatocytes assessed as GPT level at 1 mg/mL relative to control; assay type: functional
# Hepatocyte [2] = experiment: Antihepatotoxic activity against carbon tetrachloride-induced cytotoxicity in rat hepatocytes assessed as GPT level at 1 mg/mL relative to control; assay type: functional
# Hepatocyte [3] = experiment: Antihepatotoxic activity against galactosamine-induced cytotoxicity in rat hepatocytes assessed as GPT level at 0.1 mg/mL relative to control; assay type: functional
# Hepatocyte [4] = experiment: Antihepatotoxic activity against carbon tetrachloride-induced cytotoxicity in rat hepatocytes assessed as GPT level at 0.1 mg/mL relative to control; assay type: functional
# Hepatocyte [5] = experiment: Antihepatotoxic activity against galactosamine-induced cytotoxicity in rat hepatocytes assessed as GPT level at 0.01 mg/mL relative to control; assay type: functional
# [6] = molecular target: T1, Alanine aminotransferase 1 (Rattus norvegicus) (UniProt P25409); experiment: Effect on GPT in rat hepatocytes relative to control; assay type: cell-based; conditions: Hepatocyte
# T1 sequence (whole entry): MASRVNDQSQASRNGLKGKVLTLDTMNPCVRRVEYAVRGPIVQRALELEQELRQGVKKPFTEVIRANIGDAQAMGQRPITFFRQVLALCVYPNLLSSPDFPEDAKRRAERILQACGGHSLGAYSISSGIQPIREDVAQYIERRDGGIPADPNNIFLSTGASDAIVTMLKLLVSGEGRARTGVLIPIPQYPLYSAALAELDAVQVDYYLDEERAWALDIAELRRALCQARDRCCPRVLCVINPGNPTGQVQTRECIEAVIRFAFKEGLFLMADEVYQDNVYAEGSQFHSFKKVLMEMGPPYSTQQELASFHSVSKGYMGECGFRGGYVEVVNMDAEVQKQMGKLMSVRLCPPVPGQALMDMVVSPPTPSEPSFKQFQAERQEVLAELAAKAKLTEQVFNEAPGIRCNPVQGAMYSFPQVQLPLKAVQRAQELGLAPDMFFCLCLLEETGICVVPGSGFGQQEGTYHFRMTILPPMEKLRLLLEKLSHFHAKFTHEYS
# Hepatocyte [7] = experiment: Antihepatotoxic activity against carbon tetrachloride-induced cytotoxicity in rat hepatocytes assessed as GPT level at 0.01 mg/mL relative to control; assay type: functional
Compound,Activity (Hepatocyte [1]),Activity (Hepatocyte [2]),Activity (Hepatocyte [3]),Activity (Hepatocyte [4]),Activity (Hepatocyte [5]),Activity [6],Activity (Hepatocyte [7])
C[C@H]1CCC[C@]2(C)CC(=O)[C@@H](C(C)(C)O)C[C@@H]12,81%,71%,,,,,
C[C@H]1CCC[C@]2(C)CC(O)[C@@H](C(C)(C)O)C[C@@H]12 (stereo partly drawn),82%,44%,,,,,
C=C1CCC[C@]2(C)C[C@]3(O)OC(=O)C(C)=C3C[C@@H]12 [ATRACTYLENOLIDE III],97%,103%,,,,,
C=C1CCC[C@]2(C)C[C@@H]3OC(=O)C(C)=C3C[C@@H]12 [ATRACTYLENOLIDE II],94%,74%,,,,,
C=C1CCC[C@]2(C)C=C3OC(=O)C(C)=C3C[C@@H]12 [ATRACTYLENOLIDE I],107%,68%,,,,,
C=C1CCC[C@]2(C)Cc3occ(C)c3C[C@@H]12 [ATRACTYLON],84%,25%,92%,53%,99%,106%,67%
C=C1CCC[C@]2(C)CC[C@@H](C(C)(C)O)C[C@@H]12 [BETA-EUDESMOL],79%,53%,94%,70%,104%,106%,83%
C[C@H]1CCC[C@]2(C)CC[C@@H](C(C)(C)O)C[C@H]12 [DIHYDROEUDESMOL],83%,58%,,,,,
CC1CCC[C@H](C)[C@@]12CC[C@@H](C(C)(C)O)C2 (stereo partly drawn) [DIHYDROHINESOL],35%,67%,,,,,
OCc1ccco1 [FURFURYL ALCOHOL],,90%,,101%,,,102%
CC1=CCC[C@H](C)[C@@]12CC[C@@H](C(C)(C)O)C2 [HINESOL],73%,31%,99%,62%,101%,105%,79%

# Reference: ChEMBL document CHEMBL1145669, “Antihepatotoxic principles of Atractylodes rhizomes” (1983)
